In patent publication US20250092369A1, “METHOD FOR IMPROVING TRANSCYTOSIS PROPERTIES OF HUMAN BLOOD-BRAIN BARRIER MODEL” (Wisconsin Alumni Research Foundation, priority 2023, published 2025):

Experiments:
hPSC-EPCs = conditions: CHIR supplemented in hPSC-EPCs culture medium; cited from earlier work
[1] = system: gene-edited PB-TRE-N1ICD hPSC-EPCs; assay: RT-qPCR of BBB-related genes in gene-edited PB-TRE-N1ICD hPSC-EPCs + CHIR ± doxycycline; assay type: cell-based, human
Protocol: Gene-edited hPSC-derived EPCs (D5) with high post-MACS purity validated by flow cytometry were cultured on collagen IV-coated plates at approximately 4×10^4 cells/cm^2 in hECSR medium supplemented with various antibiotics, with media changes every other day. […] […] On D15, cells were collected for RT-qPCR quantification of differential gene expression between doxycycline and DPBS-treated gene-edited hPSC-EPCs.
RNA extraction was performed using the Direct-zol RNA Miniprep Kit (Zymo Research). Cells were lysed with 300-600 μL TRIzol reagent (Invitrogen, Waltham, MA) depending on the estimated cell count per sample. Cell lysates were combined with an equal volume of 100% ethanol and transferred to Zymo-Spin IICR spin columns. Columns were incubated with Rnase-free DNase I (Qiagen) to eliminate residual gDNA. Columns were washed with RNA Wash Buffer and Direct-zol RNA Pre-Wash according to Zymo RNA Miniprep Kit protocols. RNA was eluted with RNase-free water and concentration was determined using a NanoDrop 2000 spectrophotometer (Thermo Scientific). 250-1000 ng of RNA was reverse transcribed for 1 h at 37° C. using the OmniScript RT Kit (Qiagen). 1 U/μL RNaseOUT (Life Technologies) was included in the reverse-transcription reactions. Reaction products were diluted to 10 ng/μL. 20 μL qPCR reactions were carried out with 10 ng cDNA and 500 nM each forward and reverse primers (Integrated DNA Technologies, Coralville, IA [Table 1]) using PowerUp SYBR Green Master Mix (Life Technologies) or 1×Taqman Gene Expression Assay probes (Thermo Scientific [Table 1]) using Taqman Fast Advanced Master Mix (Thermo Scientific). Reactions were run on an AriaMx Real-Time PCR System (Agilent Technologies, Santa Clara, CA) using the thermal cycling program corresponding to either IDT primers or Taqman probes. An annealing temperature of 60° C. was used for all reactions.

[2] = system: gene-edited PB-TRE-N1ICD 10(+CR2) hPSC-EPCs; assay: FACS of CD144 (VE-cadherin) subpopulations in gene-edited 10(+CR2) hPSC-EPCs; assay type: cell-based, human; conditions: doxycycline-treated population, D15
Protocol: Gene-edited PB-TRE-N1ICD hPSC-EPCs were cultured in a 6-well plate with or without doxycycline as described above (n=3* replicates for doxycycline supplemented condition, n=4 replicates for PBS supplemented condition). On D15, cells were isolated with Accutase (incubated 15 mins at 37° C., 1 mL/well), triturated, and quenched through a 40 μm cell strainer into 4× the volume of DMEM (Life Technologies) supplemented with 10% FBS (R&D Systems). An additional well of gene-edited EPCs cultured with PBS was reserved as an isotype control. Unedited hPSCs maintained in E8 medium and unedited hPSC-EPCs cultured for 6 days in hECSR supplemented with 4 μM CHIR were used as an additional negative and positive control, respectively, for FACS. Cell count was quantified using a hemocytometer and cells were centrifuged at 200×g for 5 min. Cells were resuspended in MACS buffer at a concentration of 100 μL/10^6 cells. Cells suspensions were supplemented with CD144-APC or APC-conjugated isotype control antibodies (Table 2) at a 1:50 dilution for at 4° C. for 20 min, protected from light. Cells were washed with 2 mL MACS buffer and centrifuged at 200×g for 5 min. Pellets were resuspended in 400 μL each of MACS buffer supplemented with 1 μg/mL DAPI (Invitrogen) and incubated at 4° C., protected from light.
Cells were sorted using the BD FACSAria III Cell Sorter (BD Biosciences). Gates for high or low CD144-expressing cells were determined based on two negative controls (gene-edited PB-TRE-N1ICD hPSC-derived ECs stained with APC isotype control antibody or unedited hPSCs stained with CD144-APC antibody, both negative for CD144) and one positive control (unedited hPSC-EPCs cultured with CHIR, CD144 high). After establishing gates, live gene-edited PB-TRE-N1ICD hPSC-ECs treated with or without doxycycline were sorted into tubes containing 500 μL MACS buffer and stored at 4° C.

[3] = system: gene-edited PB-TRE-N1ICD 10(+CR2) hPSC-EPCs; assay: Bulk RNA-sequencing of FACS-sorted gene-edited 10(+CR2) hPSC-EPC subpopulations; assay type: cell-based, human
Protocol: Ten PBS or doxycycline-treated gene-edited PB-TRE-N1ICD hPSC-derived endothelial cell subpopulations obtained via FACS were centrifuged at 200×g for 5 min. Pellets were resuspended TRIzol reagent (Invitrogen) for extraction of total RNA. RNA concentrations were quantified using the Qubit 4 Fluorometer (Invitrogen) and Qubit RNA High Sensitivity Assay Kit (Invitrogen). Purified RNA samples (≥200 ng) were sent to Novogene Corporation (Sacramento, CA) for library preparation and mRNA sequencing, with approximately 40-60 million paired end reads obtained per sample. FASTQ files were uploaded to the Galaxy^43 web platform and processed to generate a raw counts matrix using the publicly available bioinformatics server at usegalaxy.org. We ran FastQC to ensure high Phred quality scores and low percentages (<5%) adapter content (Galaxy). Illumina Universal Adapter sequences were trimmed from raw sequencing reads using Cutadapt (Galaxy). Data were aligned to the hg38 genome model using RNA STAR and raw reads per gene were determined using featureCounts. Differential expression analysis was performed in R using DESeq2^44. Heatmaps containing TPM values were generated using the pheatmap package in R. Comparison of the transcriptomic profile of […] overexpressing EPCs±Dox subpopulations to transcriptomes of established cell and tissue types was performed with […]^45.

[4] = system: gene-edited PB-TRE-N1ICD 10(+CR2) hPSC-EPCs; assay: Transendothelial electrical resistance (TEER); assay type: cell-based, human; conditions: Dox-treated edited hPSC-EPCs at end of culture (D15), doxycycline D11-D15
[5] = system: heterogeneous gene-edited hPSC-EPCs; assay: CD31 flow cytometry in heterogeneous gene-edited hPSC-EPCs, hygromycin/doxycycline timing; assay type: cell-based, human; conditions: 6 days of hygromycin reselection followed by 4 days of doxycycline treatment
Protocol: To determine CD31 expression in edited hPSC-EPCs treated with doxycycline vs. DPBS (FIG. 15A,B), hPSC-ECs were isolated at day 13, 15, or 17, dissociated with Accutase as previously stated, quenched in DMEM supplemented with 10% FBS through a cell strainer, centrifuged, and resuspended in MACS buffer (100 μL/10^6 cells) supplemented with CD31-APC or APC isotype control antibodies at a 1:50 dilution. Cells were incubated at 4° C. for 20 min, protected from light. Cells were washed with 2 mL MACS buffer and centrifuged at 200×g for 5 min. Pellets were resuspended in 500 μL each of 4% PFA in DPBS and incubated 15 min at room temperature, protected from light. Cells were centrifuged at 200×g for 5 min and pellets were resuspended in 400 μL MACS buffer. Samples were run on an Attune NxT V6 flow cytometer with excitation at 633 nm. APC emission was detected with a 670/14 filter. Data were analyzed with Flow Jo software.

[6] = system: gene-edited PB-TRE-N1ICD hPSC-EPCs; assay: Fluorescent albumin accumulation assay in gene-edited PB-TRE-N1ICD hPSC-EPCs; assay type: cell-based, human; conditions: PBS-treated 10(+CR2) cells, 30 min pretreatment: 3 mM MβCD, 20 µM CPZ or 2 μM rottlerin
Protocol: Fixable, Alexa Fluor 647-conjugated bovine serum albumin (BSA) (Invitrogen) was used as a substrate to estimate total fluid-phase endocytosis. […] Similarly, D6 cultures of HUVECs treated with GFP or N1ICD LV were pre-treated with or without 3 mM MβCD for 30 min at 37° C. Cells were washed once with sterile DPBS and then incubated in hECSR (for hPSC-EPCs) supplemented with 5 μg/mL BSA or 1:1000 diluted DPBS, 1:100 diluted CD144-FITC or FITC isotype control antibody, and 4 μM Hoechst 33342 (Life Technologies) or EGM-2 media (for HUVECs) supplemented with 5 μg/mL BSA or 1:1000 diluted DPBS and 4 μM Hoechst 33342 at 4° C. or 37° C. for 2 h on a rotating platform at 30 rpm, protected from light. Cells were then washed 3 times with 4° C. sterile DPBS to stop the assay and wash away any extracellular BSA. Internalization of fluorescent BSA was visualized using an Eclipse Ti2-E epifluorescence microscope (Nikon, Tokyo, Japan) with a 20× objective.
Flow cytometry was used to quantify accumulated BSA fluorescence within cells. […] FITC emission was detected with a 530/30 filter and AlexaFluor 647 emission was detected with a 670/14 filter. Data were analyzed with Flow Jo software.

[7] = clone 10(+CR2), 6d H+4d D, 1 μg/mL doxycycline vs PBS, D15
[8] = clone 10(+CR2), 6d P+4d D vs PBS control

SMILES: Cc1c[nH]c(-c2cnc(NCCNc3ccc(C#N)cn3)nc2-c2ccc(Cl)cc2Cl)n1 [CHIR, CHIR99021]
- increase in normalized SLC2A1 expression (TPM) (hPSC-EPCs): ~750 fold

SMILES: C[C@H]1c2cccc(O)c2C(=O)C2=C(O)[C@]3(O)C(=O)C(C(N)=O)=C(O)[C@@H](N(C)C)[C@@H]3[C@@H](O)[C@@H]21 [doxycycline, doxycycline hyclate]
- decrease in CDH5 expression ([1]; clone 3(+Y) hPSC-EPCs, highest doxycycline dose, D11-D15): ~2 fold
- downregulation of TJP1 ([1]; clone 10(+CR2), 2d P+4d D+4P vs PBS control): ~2 fold
- upregulation in MFSD2A ([1]; clone 10(+CR2), 6d H+4d D and 6d P+4d D vs PBS control (6d H+4d P), D15): 60- to 100 fold
- decrease in expression of CDH5 [1, 7]: ~3 fold
- increase in MFSD2A expression [1, 7]: ~50 fold
- increase in SLC2A1 expression [1, 7]: > 20 fold
- increase in expression of ABCB1 [1, 7]: ~2 fold
- increase in expression of ABCC1 [1, 7]: ~2 fold
- increase in expression of ABCG2 [1, 7]: ~2 fold
- upregulation in N1ICD expression [1, 7]: ~8 fold
- increase in CDH2 ([1]; clone 10(+CR2), 6d P+4d D and 2d P+4d D+4P vs PBS control): ~2 fold
- increase in ABCC1 [1, 8]: 7 fold
- increase in ABCG2 [1, 8]: 4 fold
- increase in FN1 [1, 8]: ~12 fold
- upregulation of CLDN5 [1, 8]: ~2 fold
- reduction in CDH5 ([1]; clone 10(+CR2), 6d P+4d D vs PBS control, significant): ~2 fold
- reduction in CDH5 ([1]; clone 10(+CR2), other doxycycline-treated conditions vs PBS control, non-significant): ~1.7 fold
- cells with high CD144 expression [2]: ~25%
- cells with low but not absent CD144 expression [2]: ~65%
- CD144+ cells ([2]; live cells): ~90%
- increase in NOTCH1 expression (TPM) ([3]; Dox CD144 hi vs PBS CD144 hi): ~2 fold
- increase in NOTCH1 expression (TPM) ([3]; Dox CD144 lo vs PBS CD144 hi): ~7 fold
- average TEER [4]: less than 10 Ω·cm^2
- percentage of CD31+ cells [5]: ~90%

SMILES: CC(=O)c1c(O)c(C)c(O)c(Cc2c(O)c3c(c(C(=O)/C=C/c4ccccc4)c2O)OC(C)(C)C=C3)c1O [rottlerin]
- fluorescent albumin accumulation after endocytosis inhibitor pretreatment [6]: but not with rottlerin
